Reference: US20100056524A1, “Compound” (priority 2008, published 2010)
Structures can show the parent of a compound that is named as a salt. Where two headings read alike, the source gives them in different places.

Tests used:
PKBa = biological target: T1, PKBa (Homo sapiens, UniProt P31749, S473D); assay: PKBa protein kinase assay; assay type: biochemical; settings: for remaining activity at 10 µM: 10 μM compound
T1 construct: protein kinase Bα[118-480][S473D]; His6; made in house; host or cells: insect Sf21 cells
From the text: (§1) All protein kinases were of human origin and encoded full length proteins, unless indicated otherwise. They were either expressed as glutathione S-transferase (GST) fusion proteins in Escherichia Coli or as hexahistidine (His6)-tagged proteins in insect Sf21 cells. GST fusion proteins were purified by affinity chromatography on glutathione-Sepharose, and His6-tagged proteins on nickel/nitriloacetate-agarose. The procedures for expressing some of the protein kinases used herein have been detailed previously.^8,9 The following sections outline the DNA vectors synthesised and the procedures used to express and purifying protein kinases that have not been reported previously.
The following kinases were expressed in Sf21 cells: Aurora B and Aurora C, extra-cellular signal-regulated kinase 8 (ERK8), microtubule affinity regulating kinase 3 (MARK3), protein kinase Bα[118-480][S473D], protein kinase Bβ (PKBβ[120-481][S474D], 3-phosphoinositide-dependent protein kinase-1 [52-556]
In order to produce activated forms of Aurora B and Aurora C, insect Sf21 cells were incubated for 1 h with the protein phosphatase inhibitor okadaic acid (50 nM). JNK isoforms were activated with MKK4 and MKK7, MNK2 with p38α MAPkinase; PKBα, PKBβ, with PDK1, and ERK1 with MKK1. To activate CDK2, bacterial pellets expressing cyclin A2 and CDK2 were mixed together, lyse and purified on glutathione Sepharose. The GST-tags were removed by cleavage with PreScission protease and the CDK2-cyclin A2 complex purified by chromatography on SP-Sepharose. It was then activated with CAK1/CDK7 followed by chromatography on nickel-nitrilotriacetate agarose to remove CAK1/CDK7, which binds to this column by virtue of its C-terminal His6 tag. All the other protein kinases were active as expressed.
(§2) All assays (25.5 μl) were carried out at room temperature (21° C.) and were linear with respect to time and enzyme concentration under the conditions used. Assays were performed for 30 min using Multidrop Micro reagent dispensers (Thermo Electron Corporation, Waltham, Mass. 02454, USA) in a 96-well format. The concentration of magnesium acetate in the assays was 10 mM and the [γ-33P] ATP (800 cpm/pmol) was used at 5, 20 or 50 μM as indicated, in order to be at or below the Km for ATP for each enzyme. Protein kinases assayed at 5 μM ATP were: —ERK1, ERK8, PKBα, MARK3, Aurora C. Protein kinases assayed at 20 μM ATP were: —JNK1, PDK1, CHK1, CHK2, CDK2 and Aurora B. Protein kinases assayed at 50 μM ATP were: —MNK2, IKKepsilon and TBK1.
(§3) The assays were initiated with MgATP, stopped by addition of 5 μl of 0.5 M orthophosphoric acid and spotted on to P81 filterplates using a unifilter harvester (PerkinElmer, Boston, Mass. 02118, USA). The IC50 values of inhibitors were determined after carrying out assays at 10 different concentrations of each compound.
(§4) Unless stated otherwise, enzymes were diluted in 50 mM Tris/HCl pH 7.5, 0.1 mM EGTA, 1 mg/ml BSA, 0.1% (v/v) 2-mercaptoethanol and assayed in 50 mM Tris/HCl pH 7.5, 0.1 mM EGTA, 0.1% (v/v) 2-mercaptoethanol.

ROCK 2 = ROCK 2 protein kinase assay; assay type: biochemical, human; settings: for residual kinase activity: ROCK 2
From the text: as §1, §2, §3, §4

VEG-FR = biological target: T2, VEG-FR (Homo sapiens, UniProt P17948); assay: VEG-FR protein kinase assay; assay type: biochemical; settings: for remaining activity at 10 µM: 10 μM compound; for residual kinase activity VEG-FR: 1 μm compound; for remaining activity at 1 µM: 1 μM compound
T2 construct: All protein kinases were of human origin and encoded full length proteins, unless indicated otherwise; made in house
T2 sequence (P17948 784-1338 limits assumed): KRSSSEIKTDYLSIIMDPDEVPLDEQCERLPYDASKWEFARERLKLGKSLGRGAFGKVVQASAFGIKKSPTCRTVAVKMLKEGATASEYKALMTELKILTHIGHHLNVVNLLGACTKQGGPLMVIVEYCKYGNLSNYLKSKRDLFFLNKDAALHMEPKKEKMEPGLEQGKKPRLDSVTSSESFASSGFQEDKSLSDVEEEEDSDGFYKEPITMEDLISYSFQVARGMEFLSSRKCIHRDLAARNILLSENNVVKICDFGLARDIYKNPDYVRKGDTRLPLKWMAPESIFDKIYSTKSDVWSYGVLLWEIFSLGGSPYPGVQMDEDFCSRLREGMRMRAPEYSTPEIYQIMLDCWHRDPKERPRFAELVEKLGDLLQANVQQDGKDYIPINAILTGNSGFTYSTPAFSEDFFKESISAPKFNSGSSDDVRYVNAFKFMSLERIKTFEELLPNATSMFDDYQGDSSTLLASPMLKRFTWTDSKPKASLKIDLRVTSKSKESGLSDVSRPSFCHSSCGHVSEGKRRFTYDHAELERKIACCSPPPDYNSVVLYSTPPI
From the text: as §1, §2, §3, §4

PAK4 = biological target: T3, PAK4 (Homo sapiens, UniProt O96013); assay: PAK4 protein kinase assay; assay type: biochemical; settings: for remaining activity at 10 µM: 10 μM compound; for residual kinase activity PAK4: 1 μm compound; for remaining activity at 1 µM: 1 μM compound
T3 construct: All protein kinases were of human origin and encoded full length proteins, unless indicated otherwise; made in house
From the text: as §1, §2, §3, §4

[1] = test system: panel of different kinases; assay: Selectivity across kinase panel (Gini coefficient); assay type: biochemical, human; settings: for GINI Coefficient: value between 0 and 1, higher = more selective
From the text: Table compares the activity of Example 23 with cyclobutanecarboxylic acid {3-[5-bromo-2-(3-fluoro-phenylamino)-pyrimidin-4-ylamino]-propyl}-amide (Compound A)^13, against a panel of different kinases, where the residual kinase activity, in %, at two concentrations of the compounds is expressed. The higher the percentage residual activity, the lower the degree of inhibition of the kinase.

[2] = read-out: residual kinase activity PKBa
[3] = 1 μm compound, read-out: residual kinase activity PKBa
[4] = read-out: residual kinase activity VEG-FR
[5] = read-out: residual kinase activity PAK4
[6] = PKBa, 1 μM compound, 5 μM ATP, read-out: residual kinase activity
[7] = PKBa, 5 μM ATP, read-out: residual kinase activity
[8] = VEG-FR, read-out: residual kinase activity
[9] = PAK4, read-out: residual kinase activity

T3 sequence (O96013 whole entry): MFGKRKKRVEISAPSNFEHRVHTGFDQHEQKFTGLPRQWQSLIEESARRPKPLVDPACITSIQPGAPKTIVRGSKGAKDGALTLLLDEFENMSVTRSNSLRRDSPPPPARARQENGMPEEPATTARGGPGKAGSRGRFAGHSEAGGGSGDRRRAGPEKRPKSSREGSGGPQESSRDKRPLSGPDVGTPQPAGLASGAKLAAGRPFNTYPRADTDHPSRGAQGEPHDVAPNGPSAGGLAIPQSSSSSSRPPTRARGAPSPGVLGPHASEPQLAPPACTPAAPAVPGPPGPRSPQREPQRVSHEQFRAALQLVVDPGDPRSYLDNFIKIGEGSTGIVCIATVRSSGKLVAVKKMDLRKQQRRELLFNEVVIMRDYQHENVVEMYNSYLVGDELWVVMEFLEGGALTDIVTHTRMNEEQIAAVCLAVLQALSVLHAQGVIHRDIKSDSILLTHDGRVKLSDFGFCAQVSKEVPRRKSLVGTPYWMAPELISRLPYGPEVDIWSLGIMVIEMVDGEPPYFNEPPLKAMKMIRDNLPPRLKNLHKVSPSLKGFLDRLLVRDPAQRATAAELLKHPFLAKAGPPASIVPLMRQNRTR
T1 sequence (P31749 118-480 S473D): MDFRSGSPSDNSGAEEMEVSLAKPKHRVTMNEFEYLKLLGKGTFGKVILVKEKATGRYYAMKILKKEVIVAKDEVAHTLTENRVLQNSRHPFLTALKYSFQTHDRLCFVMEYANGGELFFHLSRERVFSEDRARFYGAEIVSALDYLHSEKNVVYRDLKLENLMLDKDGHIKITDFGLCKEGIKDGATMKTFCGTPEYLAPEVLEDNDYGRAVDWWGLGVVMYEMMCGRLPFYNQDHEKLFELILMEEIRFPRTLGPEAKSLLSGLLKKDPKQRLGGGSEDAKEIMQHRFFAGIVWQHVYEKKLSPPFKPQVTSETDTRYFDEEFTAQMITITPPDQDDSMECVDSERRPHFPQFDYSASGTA

| SMILES | remaining activity at 10 µM (PKBa; [2]) | remaining activity at 1 µM (PKBa; [3]) | residual kinase activity ROCK 2 (ROCK 2; 10 μM compound) | residual kinase activity ROCK 2 (ROCK 2; 1 μm compound) | remaining activity at 10 µM (VEG-FR; [4]) | residual kinase activity VEG-FR (VEG-FR) | remaining activity at 10 µM (PAK4; [5]) | residual kinase activity PAK4 (PAK4) | GINI Coefficient ([1]; @ 10 μM) | GINI Coefficient ([1]; in words) | remaining activity at 1 µM (PKBa; [6]) | remaining activity at 10 µM (PKBa; [7]) | residual kinase activity (ROCK 2; 1 μM compound) | residual kinase activity (ROCK 2; 10 μM compound) | remaining activity at 1 µM (VEG-FR; [8]) | remaining activity at 10 µM (VEG-FR; [8]) | remaining activity at 1 µM (PAK4; [9]) | remaining activity at 10 µM (PAK4; [9]) | selectivity across kinase panel ([1]; in words) |
| --- | --- | --- | --- | --- | --- | --- | --- | --- | --- | --- | --- | --- | --- | --- | --- | --- | --- | --- | --- |
| O=C(NCCCNc1nc(Nc2cccc(F)c2)ncc1Br)C1CCC1 [Compound A, cyclobutanecarboxylic acid {3-[5-bromo-2-(3-fluoro-phenylamino)-pyrimidin-4-ylamino]-propyl}-amide, reference compound] | 92% | 107% | 11% | 33% | 4% | 4% | 6% | 32% | 0.19 | significantly lower value than Example 23 |  |  |  |  |  |  |  |  |  |
| O=C(NCCCNc1nc(Nc2cccc(F)c2)ncc1C1CC1)C1CCC1 [Example 23, Cyclobutanecarboxylic acid {3-[5-cyclopropyl-2-(3-fluoro-phenylamino)-pyrimidin-4-ylamino]-propyl}-amide] | 91% | 100% | 40% | 77% | 27% | 81% | 31% | 72% | 0.35 |  | 100% | 91% | 77% | 40% | 81% | 27% | 72% | 31% | significant improvement of selectivity across this kinase panel |
| O=C(NCCCNc1nc(Nc2cccc(N3CCCC3=O)c2)ncc1C1CC1)c1cccs1 [Example 47, Thiophene-2-carboxylic acid (3-{5-cyclopropyl-2-[3-(2-oxo-pyrrolidin-1-yl)-phenylamino]-pyrimidin-4-ylamino}-propyl)-amide. Hydrochloride salt] |  |  |  |  |  |  |  |  |  |  | 101% | 90% | 85% | 48% | 12% | 34% | 80% | 57% |  |
| O=C(NCCCNc1nc(Nc2cccnc2)ncc1C1CC1)c1cccs1 [Example 50, Thiophene-2-carboxylic acid {3-[5-cyclopropyl-2-(pyridin-3-ylamino)-pyrimidin-4-ylamino]-propyl}-amide] |  |  |  |  |  |  |  |  |  |  | 109% | 97% | 77% | 51% | 78% | 20% | 75% | 35% |  |
